Test results taken from ChEMBL document CHEMBL5252515, “Discovery of 6-Amino-2-{[(1S)-1-methylbutyl]oxy}-9-[5-(1-piperidinyl)pentyl]-7,9-dihydro-8H-purin-8-one (GSK2245035), a Highly Potent and Selective Intranasal Toll-Like Receptor 7 Agonist for the Treatment of Asthma” (J Med Chem, 2016).
pEC50: −log10 of the molar value.

Assays:
Format in all cases: cell-based
Toll-like receptor 7 [1] = target: T1, Toll-like receptor 7 (Homo sapiens, UniProt Q9NYK1); experiment: Agonist activity at TLR7 in human PBMC assessed as IFN-alpha production after 24 hrs by electrochemiluminescence assay
T1 sequence (Q9NYK1 whole entry): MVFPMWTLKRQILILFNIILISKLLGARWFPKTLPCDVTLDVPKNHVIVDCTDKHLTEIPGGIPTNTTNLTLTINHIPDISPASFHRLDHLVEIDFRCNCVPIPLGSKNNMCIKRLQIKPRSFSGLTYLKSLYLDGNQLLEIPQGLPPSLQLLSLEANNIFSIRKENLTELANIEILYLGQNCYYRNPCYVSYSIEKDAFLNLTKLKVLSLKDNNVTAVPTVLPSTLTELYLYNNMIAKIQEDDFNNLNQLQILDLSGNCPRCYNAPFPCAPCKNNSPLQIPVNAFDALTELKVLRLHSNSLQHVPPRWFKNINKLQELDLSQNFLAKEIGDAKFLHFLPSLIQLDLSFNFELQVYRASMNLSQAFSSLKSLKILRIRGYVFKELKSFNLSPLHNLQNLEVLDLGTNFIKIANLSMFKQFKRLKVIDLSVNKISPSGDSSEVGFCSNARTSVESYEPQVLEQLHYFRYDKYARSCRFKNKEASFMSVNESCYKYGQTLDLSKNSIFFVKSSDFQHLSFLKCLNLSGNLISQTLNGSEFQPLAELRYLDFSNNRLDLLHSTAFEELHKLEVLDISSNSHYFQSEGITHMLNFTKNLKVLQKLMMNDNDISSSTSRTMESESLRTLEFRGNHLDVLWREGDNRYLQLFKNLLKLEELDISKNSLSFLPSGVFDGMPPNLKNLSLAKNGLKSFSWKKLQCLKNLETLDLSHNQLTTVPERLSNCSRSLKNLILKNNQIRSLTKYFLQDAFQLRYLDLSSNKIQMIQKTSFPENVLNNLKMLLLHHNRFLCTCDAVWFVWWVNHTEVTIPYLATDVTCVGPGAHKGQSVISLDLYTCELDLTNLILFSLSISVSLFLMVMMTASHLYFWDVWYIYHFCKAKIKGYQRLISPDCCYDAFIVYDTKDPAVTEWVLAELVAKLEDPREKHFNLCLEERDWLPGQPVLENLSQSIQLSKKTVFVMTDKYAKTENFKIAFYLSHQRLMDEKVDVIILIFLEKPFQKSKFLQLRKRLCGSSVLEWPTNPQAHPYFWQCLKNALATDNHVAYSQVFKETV

Toll-like receptor 7 [2] = target: T1, Toll-like receptor 7; experiment: Agonist activity at TLR7 in human PBMC assessed as TNF-alpha production after 24 hrs by electrochemiluminescence assay
Toll-like receptor 7 [3] = target: T1, Toll-like receptor 7; experiment: Agonist activity at TLR7 in cryopreserved human PBMC assessed as IFN-alpha production after 24 hrs by MSD assay

pEC50 (Toll-like receptor 7 [1])	pEC50 (Toll-like receptor 7 [2])	pEC50 (Toll-like receptor 7 [3])	Structure (SMILES)
7.40	6.90		CCC[C@H](C)Oc1nc(N)c2[nH]c(=O)n(CCCCC3CCOCC3)c2n1
8.80	5.70		CCCCOc1nc(N)c2[nH]c(=O)n(CCCCCCN3CCCCC3)c2n1
		6.10	CCCCOc1nc(N)c2[nH]c(=O)n(CCCCCCC3CCOCC3)c2n1
8.20	5.20		CCCCOc1nc(N)c2[nH]c(=O)n(CCCCN3CCCCC3)c2n1
		6.70	CCCCOc1nc(N)c2[nH]c(=O)n(CC3CCOCC3)c2n1
9.10	5.60		CCC[C@H](C)Oc1nc(N)c2[nH]c(=O)n(CCCCN3CCCCC3)c2n1
		7.20	CCCCOc1nc(N)c2[nH]c(=O)n(CCCCC3CCOC3)c2n1 (stereo not given)
8.60	5.20		CCCCOc1nc(N)c2[nH]c(=O)n(CCCCN3CCN(C(C)C)CC3)c2n1
9.20	6.20		CCCCOc1nc(N)c2[nH]c(=O)n(CCCCC3CCNCC3)c2n1
		5.60	CCCCOc1nc(N)c2[nH]c(=O)n(CCN3CCCCC3)c2n1
		6.90	CCCCOc1nc(N)c2nc(O)n(Cc3ccccc3)c2n1
		6.70	CCCCOc1nc(N)c2[nH]c(=O)n(CCC3CCOCC3)c2n1
		6.50	CCCCOc1nc(N)c2[nH]c(=O)n(CCCCC3CCCCO3)c2n1 (stereo not given)
		6.80	CCCCOc1nc(N)c2[nH]c(=O)n(CCCCC3CCCO3)c2n1 (stereo not given)
7.70	4.80		CCCCOc1nc(N)c2[nH]c(=O)n(CCCCN3CCCC3)c2n1
		7.40	CCCCOc1nc(N)c2[nH]c(=O)n(CCCCC3CCCOC3)c2n1 (stereo not given)
		7.30	CCCCOc1nc(N)c2[nH]c(=O)n(CCCCCC3CCOCC3)c2n1
		7.20	CCCCOc1nc(N)c2[nH]c(=O)n(CCCC3CCOCC3)c2n1
		7.00	CCCCOc1nc(N)c2[nH]c(=O)n(CCCCC3CCOCC3)c2n1
9.30	5.00		CC[C@H](C)Oc1nc(N)c2[nH]c(=O)n(CCCCCN3CCCCC3)c2n1
6.00	4.90		Nc1nc(OC2CCCC2)nc2c1[nH]c(=O)n2CCCCN1CCCCC1
8.60	6.00		CCCCOc1nc(N)c2[nH]c(=O)n(CCCCC3CCCNC3)c2n1 (stereo not given)
9.00	4.90		CC(C)Oc1nc(N)c2[nH]c(=O)n(CCCCCN3CCCCC3)c2n1
9.10	5.20		CCCCOc1nc(N)c2[nH]c(=O)n(CCCCC3CCN(C(C)C)CC3)c2n1
9.20	5.60		CCCC[C@H](C)Oc1nc(N)c2[nH]c(=O)n(CCCCN3CCCCC3)c2n1
8.10	5.30		CCCCOc1nc(N)c2[nH]c(=O)n(CCCCCN3CCCCC3)c2n1
8.80	5.20		CCCCOc1nc(N)c2[nH]c(=O)n(CCCCN3CCCCCC3)c2n1
6.70	5.40		CCCCOc1nc(N)c2[nH]c(=O)n(CCCCN3CCOCC3)c2n1
		6.50	CCCCOc1nc(N)c2nc(O)n(CCCN3CCCCC3)c2n1
